From patent US9340774B2, “Tumor-initiating cells and methods for using same” (Wyeth LLC, priority 2009, dated 2016)

What was measured:
[1] = test system: H460T CD24−/lowCD44+ and CD24highCD44+ cells; experiment: Differential drug response of sorted H460T populations; assay type: cell-based, human
Excerpt: H460 cells were obtained from the American Type Culture Collection (ATCC) in Manassas, Va., United States of America. The H460 cell line was derived from the pleural fluid of a patient with large cell cancer of the lung (Gazdar et al., Science, 1989, 246: 491494). HCC2429 cells were obtained from J. Minna. See Haruki et al., J. Med. Genet., 2005, 42(7):558-64. […] Higher-passage cells are referred to as H460T to distinguish them from the low-passage H460 that were originally obtained from ATCC. All cells were incubated at 37° Celsius with 5.0% carbon dioxide (CO2). H460T cells were cultured in RPMI-1640 (GIBCO®, available from Invitrogen of Carlsbad, Calif., USA). See Moore et al., JAMA, 1967, 199: 519-524, 10% fetal bovine serum (FBS, GIBCO®, available from Invitrogen of Carlsbad, Calif., USA), 2 mM additional glutamine, 100 IU/mipenicillin, 100 μg/ml streptomycin, 1 mM sodium pyruvate, 0.1% sodium bicarbonate, 045% additional glucose, and 10 mM 4-(2-hydroxyethyl)-1-piperazineethanesulfonic acid (HEPES). HCC2429 cells were cultured in RPMI-1640, 10% FBS, 2 mM additional glutamine, 100 IU/ml penicillin, 100 μg/ml streptomycin. Karyotyping and short tandem repeat (STR) analysis of H460T confirmed its H460 origin, however the Y chromosome was absent in H460T cells and present in most H460 cells. […]

5T4 = experiment: Anti-5T4 immunoblot of sorted cells treated with all-trans retinoic acid; assay type: cell-based, human; conditions: CD24−/lowCD44+ cells; 10 μM; 72 hours; 0.5% FBS medium; FIG. 6B
Method: To determine 5T4 expression under conditions of growth and differentiation, cells were harvested at several time points, and protein extracts were subjected to immunoblot analysis. Cells were washed with PBS and lysed in 0.5% v/v NP40 in 25 mM Tris-buffered saline pH 7.4 (TBS). After protein estimation (MICROBCA™ Protein Assay Kit, Pierce of Rockford, Ill., USA), the lysates were mixed with non-reducing Laemmli sample buffer (Biorad of Hercules, Calif., USA) and 10 μg samples were loaded in each well of a non-reducing 4-20% polyacrylamide gradient gel (NOVEX®, available from Invitrogen of Carlsbad, Calif., USA). The samples were run for two to three hours at 125 volts and transferred to a PVDF (polyvinylidene fluoride) membrane by means of a Novex® electrophoresis transfer system. The membrane was blocked overnight with 5% milk in Tris-buffered saline Tween-20 (TBST) with 1% goat serum, probed with anti-5T4 antibody H8 at 1 μg/ml in 5% milk in TBST, washed and probed with HRP conjugated goat anti-mulgG at 1:5,000 dilution. The ECL detection system was used (Amersham of Burlington, Mass., USA).
To further assess 5T4 expression in tumor cell lines, sorted cells were treated with all-trans retinoic acid to induce differentiation and then subjected to immunoblot analysis. […]

60274 xenografts = experiment: Tumor regression of NSCLC primary implant xenografts, line 60274; assay type: in vivo, mice; conditions: maximum tolerable dose
Method: Nude (for 37622) or nod-scid (for 60274) mice were injected subcutaneously between the shoulder blades with fragments of low-passage primary implants. When the tumors reached the mass of 0.2 to 0.5 g, the tumors were staged to ensure uniformity of the tumor mass between various treatment groups prior to the administration of therapy. Anti-5T4 huH8 antibody and anti-CD33 p67.6 antibody were conjugated to calicheamicin via an amide linker as described (Hamann et al., Bioconug. Chem., 2002, 13: 40-46). The “amide” linker restricts the release of calicheamicin to cells that internalize the antibody-drug conjugate (Hamann et al., Bioconug. Chem., 2002, 13: 40-46). […] Tumors were measured at least once a week and their mass was as volume=0.5×(tumor width^2)(tumor length). Mean tumor volume (±SEM) for each treatment group was calculated and compared to the vehicle-treated group for statistical significance using a one-sided t-test, with the error term for the t-test based on the pooled variance across all treatment groups. Tumor values for each treatment group were recorded up to 120 days after the initiation of treatment or until either tumor-bearing mice died or the tumors grew to 15% of the body weight at which time these mice were euthanized according to institutional regulations.

[2] = test system: H460T CD24−/lowCD44+ and CD24highCD44+ cells; experiment: Four-day MTS cell viability assay on sorted cells; assay type: cell-based, human; conditions: 96 hours of drug exposure, FIG. 10A
Method: The CD24^−/lowCD44^+ population was more sensitive to an anti-5T4 antibody-drug conjugate than the CD24^highCD44^+ population in an cell viability assay and a colony growth assay. For each assay, antibody-calicheamicin AcBut-linked (AcBut-AcBut-[4-(4-acetylphenoxy) butanoic acid]) conjugates were prepared as described (Hamann et al., Bioconjug. Chem., 2002, 13: 47-58). The effect of anti-5T4 huH8 antibody-drug conjugate or anti-CD22 antibody-drug conjugate on sorted cells was assessed using a cellular viability indicator ((3-(4,5-dimethylthiazol-2-yl)-5([…])-2-(4-sulfophenyl)-2H-tetrazolium (MTS) (Promega of Madison, Wis., USA) to determine the number of surviving cells following exposure to the drug treatment. Cells were sorted 18 hours prior to start of assay. Cells were seeded in 96-well microtiter plates at a density of 10000 cells per well and exposed to various concentrations of the drug. Following determination of the number of viable cells surviving 96 hours of drug exposure, the IC50 of each treatment was calculated based on the logistic regression parameters derived from the dose-response curves. IC50 values were calculated by logistic non-linear regression and are reported as the calicheamicin dimethyl hydrazide (CalichDMH) concentration from each treatment group that causes 50% loss of cell viability.

[3] = test system: H460T CD24−/lowCD44+ and CD24highCD44+ cells; experiment: Colony formation (clonogenic) assay on sorted cells; assay type: cell-based, human; conditions: 72 hours drug exposure, 200 cells replated, colonies after 8 days; FIG. 10B
Method: To perform a colony formation assay, cells were seeded in 24 well plate at a density of 5,000 cells per well. Twenty-four hours after seeding the cells were exposed to various concentrations of (0.000097, 0.000390, 0.00156, 0.00625, 0.025, 0.1, 0.4 ng calicheamicin equivalents/ml) of anti-5T4 H8-AcBut conjugate, anti-CD22 AcBut conjugate, or calicheamicin alone. Seventy-two hours after the drug exposure, cells were trypsinized, counted and 200 cells were plated in 6 well plates. After 8 days, the colonies were fixed and stained with methylene blue. The number of colonies per well was counted using a Stereoscope.

Molecule: O=c1[nH]cc(F)c(=O)[nH]1 [5-fluoruracil]
- response of CD24−/lowCD44+ versus CD24highCD44+ populations [1]: responded equally

Molecule: CC1=C(/C=C/C(C)=C/C=C/C(C)=C/C(=O)O)C(C)(C)CCC1 [all-trans retinoic acid]
- 5T4 expression (immunoblot) (5T4): dramatically reduced

Molecule: CC[C@@]1(O)C(=O)OCc2c1cc1n(c2=O)Cc2cc3ccccc3nc2-1 [camptothecin]
- response of CD24−/lowCD44+ versus CD24highCD44+ populations [1]: responded equally

Molecule: N.N.[Cl][Pt][Cl] [cisplatin]
- tumor size of 60274 xenografts (60274 xenografts; FIG. 12C): reduced tumor size transiently
- regrowth of 60274 tumors (60274 xenografts; after completion of the dosing regimen): quickly regrew

Molecule: calicheamicin
- sensitivity of CD24−/lowCD44+ cells versus CD24highCD44+ cells (IC50 as CalichDMH concentration) [2]: No difference between the two populations
- sensitivity of CD24−/lowCD44+ cells versus CD24highCD44+ cells (number of colonies) [3]: No difference between the two populations
